“Also recorded” adds a separate entry of the source.
Target: T1, human serum albumin (Homo sapiens, UniProt P02768)
Assay: not given
Details: prior knowledge on non-drugs such as gases; cited from earlier work

T1 sequence (P02768 25-609): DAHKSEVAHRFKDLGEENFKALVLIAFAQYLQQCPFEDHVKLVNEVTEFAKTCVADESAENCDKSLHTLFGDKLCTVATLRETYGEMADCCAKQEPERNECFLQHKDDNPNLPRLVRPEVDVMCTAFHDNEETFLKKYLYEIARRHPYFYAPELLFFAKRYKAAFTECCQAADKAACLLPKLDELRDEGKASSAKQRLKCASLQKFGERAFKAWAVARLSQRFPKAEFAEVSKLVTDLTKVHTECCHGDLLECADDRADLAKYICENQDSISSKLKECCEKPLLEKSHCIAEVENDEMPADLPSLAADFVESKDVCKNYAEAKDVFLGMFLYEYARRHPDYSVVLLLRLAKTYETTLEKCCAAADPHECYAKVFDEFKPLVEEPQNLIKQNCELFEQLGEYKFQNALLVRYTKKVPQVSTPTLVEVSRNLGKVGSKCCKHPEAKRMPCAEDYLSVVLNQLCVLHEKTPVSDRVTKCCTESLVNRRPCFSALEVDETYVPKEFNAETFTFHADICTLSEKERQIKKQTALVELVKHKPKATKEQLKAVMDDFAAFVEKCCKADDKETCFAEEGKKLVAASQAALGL

| Molecule | HSA site with binding affinity, previously known |
| --- | --- |
| FC(F)(F)C(Cl)Br (stereo not shown) [halothane] | IIA-IIB |

Target: T1, human serum albumin
Assay: X-ray crystallography of human serum albumin/drug complexes: binding location
Parameters: Domain I (1 through 192); Domain II (193 through 395);Domain III (396 THROUGH 585)
Details: not given
Description: This information was derived from crystallization of the protein/ligand to create a protein/ligand complex and determining the atomic structure of the resulting complex by x-ray diffraction. The ligand may be any ligand capable of binding to the human serum albumin protein, and is preferably a ligand that binds to one of the binding sites described herein.
One method of obtaining information regarding the structural; characteristics of the albumin binding regions is through protein crystallization processes.
By applying standard crystallization protocols to the above described crystallizable compositions, crystals of the human serum albumin complex may be obtained. This, an even further aspect of this invention relates to a method of preparing human serum albumin complex-containing crystals. The method comprises the steps of • (a) obtaining a crystallizable composition comprising a human serum albumin protein, divalent cations, and a ligand capable of binding to the protein, and • (b) subjecting the composition of step (a) to conditions which promote crystallization.
The “active site binding pockets” or “active site” of human serum albumin refers to one of several areas determined experimentally on the human serum albumin protein surface where substrates bind.

| Molecule | Binding site of the Drug-Albumin Complex (site heading the list of contacting residues) |
| --- | --- |
| Cc1noc(NS(=O)(=O)c2ccc(N)cc2)c1C [Sulfisoxazole] | Site IB, L115, V116, R117, P118, M123, Y138, I142, Y161, L182, |

Same assay, conditions: Table I, Phase I; subdomain of HSA where the drug is found in the crystal complex

| Molecule | Albumin Binding Location |
| --- | --- |
| CCCCC(=O)O[C@H]1CC[C@H]2[C@@H]3CCc4cc(O)ccc4[C@H]3CC[C@]12C [Estradiol Valerate] | IIA |
| CC(NC(C)(C)C)C(=O)c1cccc(Cl)c1 (stereo not shown) [Bupropion] | IIA, IIIA |
| CC1(C)S[C@@H]2[C@H](NC(=O)COc3ccccc3)C(=O)N2[C@H]1C(=O)O [Penicillin V] | IIA |
| CC1=C(/C=C/C(C)=C/C=C/C(C)=C/C(=O)O)C(C)(C)CCC1 [Tertinoin] | IIIA |
| C[C@]12C=CC(=O)C=C1CC[C@@H]1[C@@H]2C(=O)C[C@@]2(C)[C@H]1CC[C@]2(O)C(=O)CO [Prednisone] | IIA |
| CN(C/C=C/C#CC(C)(C)C)Cc1cccc2ccccc12 [Terbinafine] | IIIA |
| CCCNC(=O)NS(=O)(=O)c1ccc(Cl)cc1 [Chlorpropamide] | IIA, IIIA |
| CN1C(CCl)Nc2cc(Cl)c(S(N)(=O)=O)cc2S1(=O)=O (stereo not shown) [Methayclothiazide] | IIA-IIB |
| O=C1NC(=O)C(c2ccccc2)(c2ccccc2)N1 [Phenytoin] | IIA |
| CCc1nn(CCCN2CCN(c3cccc(Cl)c3)CC2)c(=O)n1CCOc1ccccc1 [Nefazodone] | IIIA |
| CC[C@H](C)C(=O)O[C@H]1C[C@@H](C)C=C2C=C[C@H](C)[C@H](CC[C@@H]3C[C@@H](O)CC(=O)O3)[C@H]21 [Lovastatin] | IIA |

Same assay, conditions: Table II, Phase II; refined coordinates; listed residues within 5 Å of bound ligand

| Molecule | Binding site of the Drug-Albumin Complex (site heading the list of contacting residues) |
| --- | --- |
| CC1(C)S[C@@H]2[C@H](NC(=O)C(c3ccccc3)S(=O)(=O)O)C(=O)N2[C@H]1C(=O)O (stereo partly shown) [Sulbenicillin] | Site IIA, Y150, K195, K199, W214, R218, L219, R222, L238, H242, |
| CC[C@@]1(O)C(=O)OCc2c1cc1n(c2=O)Cc2cc3ccccc3nc2-1 [Camptothecin] | Site IB, L115, V116, R117, M123, Y138, I142, H146, F149, L154, |
| COc1ccc2cc(CC(=O)O)ccc2c1 [6-MNA] | Site IB, R114, L115, R117, M123, L135, Y138, L139, I142, H146,; also recorded: Site IIA-IIBR209, A210, A213, W214, D324, L327, G328, L331,; also recorded: Site IIIA, L387, I388, N391, C392, F403, L407, R410, Y411, K414, |
| COc1ccccc1OCCNCC(O)COc1cccc2[nH]c3ccccc3c12 (stereo not shown) [Carvedilol] | Site IIIA, P384, L387, I388, N391, F403, L407, R410, Y411, K414, |
| CCc1cccc2c3c([nH]c12)[C@](CC)(CC(=O)O)OCC3 [S-Etodolac] | Site IIIA, P384, L387, I388, N391, F403, L407, R410, Y411, K414, |
| CC(=O)[C@]1(O)Cc2c(O)c3c(c(O)c2[C@@H](O[C@H]2C[C@H](N)[C@H](O)[C@H](C)O2)C1)C(=O)c1ccccc1C3=O [Idarubicin] | Site IB, F036, F037, L115, V116, R117, P118, V122, M123, A126, |
| Cc1nc2n(c(=O)c1CCN1CCC(c3noc4cc(F)ccc34)CC1)CCCC2 [Risperidone] | Site IIIA, L387, I388, N391, C392, F403, L407, R410, Y411, K414, |
| Cc1ccc(Cl)c(Nc2ccccc2C(=O)O)c1Cl [Meclofenamic Acid] | Site IIIA, P384, L387, I388, N391, C392, F403, L407, R410, Y411, |
| Cc1ccc(C)c(OCCCC(C)(C)C(=O)O)c1 [Gemfrirozil] | Site IB, L115, V116, R117, F134, L135, Y138, L139, I142, R145,; also recorded: Site IIIA, L387, R410, Y411, K414, V415, V418, L423, V426, S427, |
| CN1C(C(=O)Nc2ccccn2)=C(O)c2ccccc2S1(=O)=O [Piroxicam] | Site IIA, K195, Q196, L198, K199, F211, W214, A215, R218, L219, |
| CC[C@@]1(O)C(=O)OCc2c1cc1n(c2=O)Cc2cc3c([N+](=O)[O-])cccc3nc2-1 [9 Nitro-Camptothecin] | Site IB, L115, V116, R117, Y138, I142, H146, F149, L154, F157, |
| O=C(O)CCc1nc(-c2ccccc2)c(-c2ccccc2)o1 [Oxaprozin] | Site IIIA, P384, L387, I388, N391, C392, F403, L407, R410, Y411, |
| COc1ccc(Cl)cc1C(=O)NCCc1ccc(S(=O)(=O)NC(=O)NC2CCCCC2)cc1 [Glyburide] | Site IB, L115, V116, R117, P118, M123, A126, F134, K137, Y138, |
| O=C(Oc1ccccc1C(=O)O)c1ccccc1O [Salsalate] | Site IIIB, F509, I513, R521, K524, K525, A528, M548, F551, A552, |
| COc1cc(C(=O)NS(=O)(=O)c2ccccc2C)ccc1Cc1cn(C)c2ccc(NC(=O)OC3CCCC3)cc12 [Zafirlukast] | Site IIA, Y150, E153, K195, L198, K199, S202, F211, W214, A215, |
| CCC(=O)O[C@](Cc1ccccc1)(c1ccccc1)[C@H](C)CN(C)C [Propoxyphene] | Site IIIB, F502, F507, F509, A528, E531, L532, H535, V547, D550, |
| CCc1cccc2c3c([nH]c12)C(CC)(CC(=O)O)OCC3 (stereo not shown) [Etodolac] | Site IB, L115, Y138, E141, I142, R145, H146, Y161, L182, L185,; also recorded: Site IIIA, P384, L387, I388, N391, F403, L407, R410, Y411, K414, |
| CC(C(=O)O)c1ccc(-c2ccccc2)c(F)c1 (stereo not shown) [Flurbiprofen] | Site IIIA, L387, I388, N391, C392, F395, F403, L407, R410, Y411, |
| Cc1cccc(Nc2ccccc2C(=O)O)c1C [Mefenamic Acid] | Site IIIA, E383, P384, L387, N391, C392, F403, L407, R410, Y411, |
| CCCc1nc2c(C)cc(-c3nc4ccccc4n3C)cc2n1Cc1ccc(-c2ccccc2C(=O)O)cc1 [Telmisartan] | Site IB, L115, V116, R117, P118, M123, F134, K137, Y138, E141, |
| O=C(c1ccccc1)c1ccc2n1CC[C@H]2C(=O)O [R-Ketorolac] | Site IB, R117, Y138, I142, H146, F149, L154, F157, Y161, L182, |
| CC(=O)Oc1ccccc1C(=O)O [Aspirin] | Site IIIB, F509, I513, R521, K524, K525, A528, M548, F551, A552, |
| Hemin | Site IB, R114, L115, V116, R117, P118, M123, F134, L135, Y138, |
| O=C(c1ccccc1)c1ccc2n1CC[C@@H]2C(=O)O [S-Ketorolac] | Site IIIB, F507, F509, I513, L516, R521, K524, K525, A528, L532, |
| O=C(c1ccccc1)c1ccc2n1CCC2C(=O)O (stereo not shown) [Ketorolac] | Site IB, L115, R117, Y138, I142, H146, F157, Y161, L182, D183,; also recorded: Site IIIA, L387, I388, N391, C392, F403, L407, R410, Y411, K414, |
| O=C(O)CCNC(=O)c1ccc(/N=N/c2ccc(O)c(C(=O)O)c2)cc1 [Balsalazide] | Site IIA-IIIB, S401, K402, N405, A406, L407, V409, R410, K413, |
| COc1cc([C@@H]2c3cc4c(cc3[C@@H](O[C@@H]3O[C@@H]5CO[C@@H](c6cccs6)O[C@H]5[C@H](O)[C@H]3O)[C@H]3COC(=O)[C@H]23)OCO4)cc(OC)c1O [Teniposide] | Site IB, L115, V116, R117, P118, A126, F134, K137, Y138, E141, |
| CCOc1nc2cccc(C(=O)OC(C)OC(=O)OC3CCCCC3)c2n1Cc1ccc(-c2ccccc2-c2nn[nH]n2)cc1 (stereo not shown) [Candesartan Cilexitil] | Site II-III, K195, L198, K199, S202, L203, F206, G207, A210, F211,; also recorded: Site IIIA, P384, L387, I388, N391, C392, F395, F403, L407, Y411,; also recorded: Site IIIA-IIIB, L398, Y401, K402, N405, A406, V409, R410, L529, |
| CC(CN1c2ccccc2Sc2ccccc21)N(C)C (stereo not shown) [Promethazine] | Site IIB, D308, F309, N318, E321, A322, V325, F326, N329 |
| CC1(C)S[C@@H]2[C@H](NC(=O)Cc3ccccc3)C(=O)N2[C@H]1C(=O)O [Penecillin G] | Site IIA, Y150, K195, K199, F211, W214, A215, R218, L219, R222, |
